Results published in EPA's ToxValDB 9.5 (doi:10.2903/j.efsa.2010.1833).
Values after ≈ are worked out from the molar mass of the structure shown.

Key:
Aleochara bilineata = conditions: chronic/long-term; duration: 77 days; reproduction
Coturnix japonica = conditions: acute; oral; diet; mortality
Landoltia sp. = conditions: chronic/long-term; duration: 14 days; other
Pleurozium sp. = conditions: acute; duration: 72 hours
Lepomis macrochirus = conditions: acute; duration: 96 hours; mortality
Folsomia candida = conditions: chronic/long-term; duration: 28 days; mortality
Tagia sp. = conditions: acute; duration: 14 days; mortality
Rattus norvegicus = conditions: for LD50: acute, mortality
Mus musculus = conditions: acute, oral, mortality
Canidae = conditions: subchronic; duration: 90 days; oral; gavage; Dog Other; body weight

CN1CSC(=S)N(C)C1 [Dazomet]
LEL (Aleochara bilineata): 485000 g/ha
LC50 (Coturnix japonica): > 1220 mg/kg-day
NOEC (Landoltia sp.): 0.306 mg/L
NOEC (Pleurozium sp.): 0.056 mg/L
NOEL (Anas platyrhynchos; reproductive): 16.7 mg/kg-day
LC50 (Anas platyrhynchos; short-term, oral, feed, mortality): > 341 mg/kg-day
LC50 (Lepomis macrochirus): 0.3 µg/mL (≈ 1.85 µM)
LEL (Folsomia candida): 485000 g/ha
LC50 (Colinus virginianus; acute, oral, diet, mortality): 197 mg/kg-day
LD50 (Colinus virginianus; acute, oral, mortality): > 415 mg/kg-day
NOEL (Colinus virginianus; reproduction developmental): 10.6 mg/kg-day
LC50 (Tagia sp.): 6.5 mg/kg
LD50 (Rattus norvegicus; oral, F): 415 mg/kg-day
LD50 (Rattus norvegicus; oral, M): 596 mg/kg-day
NOAEL (Rattus norvegicus; chronic, duration: 2 years, oral, diet, hematological): 0.9 mg/kg-day
NOAEL (Rattus norvegicus; developmental, development): 3 mg/kg-day
NOAEL (Rattus norvegicus; reproduction developmental, reproduction): 18 mg/kg-day
NOAEL (Rattus norvegicus; subchronic, duration: 90 days, oral, diet, organ weight): 1.5 mg/kg-day

CN=C=S [Methyl isothiocyanate]
LD50 (Mus musculus; F): 100 mg/kg-day
LD50 (Mus musculus; M): 120 mg/kg-day
NOAEL (Canidae): 0.4 mg/kg-day
NOAEL (Rattus norvegicus; reproduction developmental, body weight): 3 mg/kg-day
